This is an account of results in ChEMBL document CHEMBL1201862, “PubChem BioAssay data set” (2004).

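Growth conditions: 96-well plates. Treatment: test compound, 48 hours, 5 concentrations. Analysis: linear interpolation between bracketing concentrations; unreached endpoints set to highest concentration. The concentration for 50% growth inhibition is given as GI50.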 Active and inactive are the calls of the source. No stated cut-off is given here; in the data, active = GI50 up to about 1.1 µM and inactive = higher.

Some test systems named below: HCT-116; OVCAR-5; COLO 205; EKVX; CCRF-CEM; SN12C; M19-MEL; K562; SK-MEL-28; M14; IGROV-1; SW-620; KM12; OVCAR-4; SK-MEL-2; NCI/ADR-RES; NCI-H522; PC-3; T47D; CAKI-1.
Common to all, as to experiment: NCI-60 cell line screen, 48 h

Take `CC(C)[C@@H]1C=C(c2ccccc2)c2ccccc2C1C(C#N)(C#N)C(C)C` (stereo not given in full): the GI50 with HCT-116 was 32.9 µM (inactive); in the test with OVCAR-5, > 100 µM (inactive); in the test on COLO 205 it was > 100 µM (inactive); with EKVX, > 100 µM (inactive); with CCRF-CEM, > 100 µM (inactive); with SN12C it was > 100 µM (inactive). Moreover, the GI50 with M19-MEL was > 100 µM (inactive); in the test with K562, 38.2 µM (inactive); in the test on SK-MEL-28, > 100 µM (inactive); in the test with M14 it was > 100 µM (inactive); in the test with IGROV-1, > 100 µM (inactive); in the test with SW-620, > 100 µM (inactive). In addition, the results for the GI50 with KM12, in the test on OVCAR-4 and in the test with SK-MEL-2 were > 100 µM (inactive), 82.4 µM (inactive) and > 100 µM (inactive), respectively.
As for `COc1ccc(CC2NCCc3c2[nH]c2ccccc32)cc1` (stereo not given), the GI50 with HCT-116 was 40 µM (inactive); with OVCAR-5, > 100 µM (inactive); with COLO 205, 17.4 µM (inactive); with EKVX it was > 100 µM (inactive); in the test with CCRF-CEM, 46.2 µM (inactive); in the test with SN12C, 40.9 µM (inactive). The GI50 in the test on M19-MEL was 71.4 µM (inactive); in the test on K562, 32.6 µM (inactive); in the test with SK-MEL-28 it was > 100 µM (inactive); in the test with M14, 41.6 µM (inactive); with IGROV-1, 83 µM (inactive); with SW-620, 51.9 µM (inactive). Also, the figures for the GI50 with KM12, in the test with OVCAR-4 and in the test with SK-MEL-2 were 58.1 µM (inactive), 54 µM (inactive) and > 100 µM (inactive), respectively.
For `CC(=O)NC1=C(C)C(=O)c2c(nc3n2CC[C@H]3OC(C)=O)C1=O`, the GI50 is 1.3 µM (inactive) in the test on HCT-116; 2.96 µM (inactive) in the test on OVCAR-5; 1.91 µM (inactive) in the test with COLO 205; 5.25 µM (inactive) in the test on EKVX; 0.33 µM (active) with CCRF-CEM; 1.49 µM (inactive) in the test with SN12C. In addition, the GI50 with NCI/ADR-RES was 2.06 µM (inactive); with NCI-H522, 1.54 µM (inactive); in the test on K562 it was 1.12 µM (active); with SK-MEL-28, 2.22 µM (inactive); with M14, 2.06 µM (inactive); with IGROV-1, 3.07 µM (inactive). Besides, the GI50 is 0.637 µM (active) in the test with PC-3; 1.53 µM (inactive) in the test with SW-620; 0.238 µM (active) in the test on T47D; 3.98 µM (inactive) with CAKI-1; 1.71 µM (inactive) in the test on KM12; 0.891 µM (active) with OVCAR-4. The GI50 in the test with SK-MEL-2 is 1.41 µM (inactive).
On to `O/N=C1\Nc2ccccc2OCc2cc(Br)c(Br)cc2COc2ccccc2N\C1=N/O`, for which the GI50 with HCT-116 was 6.12 µM (inactive); in the test on OVCAR-5, 17.9 µM (inactive); in the test on COLO 205 it was 7.08 µM (inactive); with EKVX, 15.2 µM (inactive); in the test with CCRF-CEM, 4.98 µM (inactive); in the test on SN12C, 11.9 µM (inactive). For the same molecule, the GI50 with NCI/ADR-RES is 20.2 µM (inactive); in the test on NCI-H522, 6.43 µM (inactive); in the test with K562 it was 4.85 µM (inactive); in the test with SK-MEL-28 it was 22.6 µM (inactive); in the test on M14, 21.2 µM (inactive); with IGROV-1, 2.79 µM (inactive). Besides, the GI50 in the test with PC-3 was 13.4 µM (inactive); in the test with SW-620, 11.8 µM (inactive); with T47D it was 10.9 µM (inactive); with CAKI-1, 12.9 µM (inactive); in the test on KM12 it was 8.51 µM (inactive); in the test on OVCAR-4, 10.7 µM (inactive). For the same molecule, the GI50 with SK-MEL-2 is 19.5 µM (inactive).
Regarding `CN(CC(N)=O)C(=O)N(CCCl)N=O` [SARCNU], the GI50 in the test on HCT-116 is > 100 µM (inactive); in the test on OVCAR-5, > 100 µM (inactive); in the test on COLO 205 it was > 100 µM (inactive); in the test on EKVX, > 100 µM (inactive); with CCRF-CEM, > 81.8 µM (inactive); in the test with SN12C, > 100 µM (inactive). Moreover, the GI50 in the test with NCI/ADR-RES, in the test with NCI-H522, in the test with K562, with SK-MEL-28, in the test on M14 and with IGROV-1 was > 100 µM (inactive) throughout. Also, the GI50 in the test on PC-3, in the test on SW-620, in the test on T47D, with CAKI-1, with KM12 and with OVCAR-4 was > 100 µM (inactive) throughout. For the same molecule, the GI50 in the test on SK-MEL-2 is > 100 µM (inactive).
With `N#CC1(C#N)C2C=CC(C3CC=CC32)C1(C#N)C#N` (stereo not given), the GI50 is 1.93 µM (inactive) with HCT-116; 8.39 µM (inactive) in the test with OVCAR-5; 2.07 µM (inactive) in the test with COLO 205; 12.3 µM (inactive) in the test on EKVX; 1.27 µM (inactive) in the test on CCRF-CEM; 10.4 µM (inactive) with SN12C. In addition, the GI50 was 12.9 µM (inactive) with NCI/ADR-RES; 1.22 µM (inactive) in the test with NCI-H522; 2.4 µM (inactive) with K562; 10.9 µM (inactive) in the test with SK-MEL-28; 2.01 µM (inactive) in the test on M14; 9.33 µM (inactive) with IGROV-1. Moreover, the GI50 is 8.59 µM (inactive) in the test on PC-3; 2.13 µM (inactive) in the test with SW-620; 3.38 µM (inactive) in the test on T47D; 2.08 µM (inactive) in the test with CAKI-1; > 10 µM (inactive) with KM12; 4.01 µM (inactive) in the test on OVCAR-4. The GI50 in the test with SK-MEL-2 was 13.1 µM (inactive).
For the molecule `Cc1ccc(S(=O)(=O)N/N=C2\C(=O)Nc3cc(O)c(C(=O)O)cc32)cc1`, the GI50 with HCT-116 is > 100 µM (inactive); in the test with OVCAR-5, > 100 µM (inactive); with COLO 205 it was > 100 µM (inactive); in the test with EKVX, 61.8 µM (inactive); with CCRF-CEM it was > 100 µM (inactive); in the test on SN12C, > 100 µM (inactive). In addition, the GI50 with NCI/ADR-RES, with NCI-H522, in the test on K562, with SK-MEL-28, in the test with M14 and in the test on IGROV-1 was > 100 µM (inactive) in each case. Also, the GI50 in the test with PC-3, in the test with SW-620, in the test with T47D, in the test with CAKI-1, in the test on KM12 and in the test with OVCAR-4 was > 100 µM (inactive) throughout. For the same molecule, in the test on SK-MEL-2, the GI50 is > 100 µM (inactive).
As to `O=C(OCc1ccccc1)N(CCCCN(CCCNC(=O)C(F)(F)F)C(=O)OCc1ccccc1)CCCNC(=O)C(F)(F)F`, the GI50 with HCT-116 is > 100 µM (inactive); in the test on OVCAR-5, > 100 µM (inactive); in the test on COLO 205, > 88.1 µM (inactive); in the test on EKVX, > 100 µM (inactive); in the test with CCRF-CEM, > 100 µM (inactive); with SN12C it was > 100 µM (inactive). The GI50 with NCI/ADR-RES is 22.5 µM (inactive); in the test with NCI-H522 it was 2.94 µM (inactive); in the test on K562, > 100 µM (inactive); with SK-MEL-28 it was > 100 µM (inactive); in the test on M14 it was > 100 µM (inactive); with IGROV-1, > 100 µM (inactive). The GI50 in the test on PC-3 was 36.9 µM (inactive); in the test with SW-620 it was > 100 µM (inactive); in the test on T47D, > 100 µM (inactive); in the test with CAKI-1, 1.56 µM (inactive); in the test with KM12, > 100 µM (inactive); in the test with OVCAR-4 it was > 100 µM (inactive). In the test on SK-MEL-2, the GI50 was > 100 µM (inactive).
As to `CC(=O)OC12CCCCC1C1(CCCC1)NC2=O` (stereo not given), the GI50 in the test on HCT-116, in the test on OVCAR-5, in the test on EKVX, in the test on CCRF-CEM, in the test with SN12C and in the test on M19-MEL was > 100 µM (inactive) in each case. Moreover, the GI50 in the test on K562, in the test on SK-MEL-28, in the test with M14, in the test with IGROV-1, in the test on SW-620 and in the test on KM12 was > 100 µM (inactive) throughout. Further, the GI50 with OVCAR-4 was > 100 µM (inactive).
As to `C[C@H](NC(=O)C(Cc1ccccc1)(Cc1ccc(O)cn1)NC(=O)c1ccccc1)c1ccccc1` (stereo not given in full), the GI50 is 15.3 µM (inactive) in the test on HCT-116; 21.9 µM (inactive) in the test with OVCAR-5; 19.1 µM (inactive) in the test on COLO 205; 14.7 µM (inactive) with EKVX; 30.5 µM (inactive) in the test with CCRF-CEM; 16.9 µM (inactive) in the test on SN12C. Further, the GI50 is 17.4 µM (inactive) in the test on NCI/ADR-RES; 15.5 µM (inactive) in the test with NCI-H522; 34 µM (inactive) with K562; 18.5 µM (inactive) with SK-MEL-28; 15.3 µM (inactive) in the test with M14; 16.3 µM (inactive) with IGROV-1. Further, the GI50 in the test on PC-3 is 14.2 µM (inactive); in the test on SW-620, 22.5 µM (inactive); in the test on T47D, 18.5 µM (inactive); in the test with CAKI-1, 26.9 µM (inactive); in the test on KM12, 19.8 µM (inactive); in the test on OVCAR-4, 15.1 µM (inactive). Also, the GI50 in the test with SK-MEL-2 was 14.2 µM (inactive).
Regarding `CC(=O)NNc1nc(C)c(C(/C=C/c2ccc3c(c2)OCO3)=N/Nc2ccccc2)s1`, the GI50 with HCT-116, with OVCAR-5, with COLO 205, with EKVX, in the test with CCRF-CEM and in the test with SN12C was > 100 µM (inactive) each time. For the same molecule, the GI50 in the test on NCI/ADR-RES, in the test with NCI-H522, in the test on K562, with SK-MEL-28, in the test on M14 and in the test on IGROV-1 was > 100 µM (inactive) in each case. For the same molecule, the GI50 with PC-3, in the test with SW-620, with T47D, in the test with CAKI-1, in the test on KM12 and in the test with OVCAR-4 was > 100 µM (inactive) in each case. For the same molecule, in the test on SK-MEL-2, the GI50 is > 100 µM (inactive).
